Measured values as given in patent US3965105A, “Phenyl-lower-alkylamines” (Sterling Drug Inc., priority 1975, dated 1976).

Tests used:
[1] = inhibition of adjuvant-induced arthritis test, modified (adjuvant arthritis, AA); type: in vivo; details: oral, text: millimoles (μM)/kg.)
Description: (§1) Anti-inflammatory activity was determined using (1) the inhibition of carrageenin-induced foot edema test essentially described by […] and (2) a modification of the inhibition of adjuvant-induced arthritis test described by Pierson, J. Chronic Diseases 16, 863 (1963) and Glenn et al., Am. J. Vet. Res. 26, 1180 (1965).
(§2) The phenyl-lower-alkylamines of formula I of the invention have been tested in the carrageenin edema (CE) and adjuvant arthritis (AA) tests and found to have anti-inflammatory activity. Data so-obtained, stated in terms of percent inhibition at a dose expressed in terms of millimoles (μM)/kg.,are given below. All data were obtained on oral administration.

[2] = inhibition of carrageenin-induced foot edema test (carrageenin edema, CE); type: in vivo; details: oral, text: millimoles (μM)/kg.)
Description: as §1, §2

Compound	AA (% Inhib.) ([1]; dose 0.324 (head: mmol/kg)	CE (% Inhib.) ([2]; dose 0.08 (head: mmol/kg)	CE (% Inhib.) ([2]; dose 0.324 (head: mmol/kg)	AA (% Inhib.) ([1]; dose 0.01 (head: mmol/kg)	AA (% Inhib.) ([1]; dose 0.04 (head: mmol/kg)	AA (% Inhib.) ([1]; dose 0.16 (head: mmol/kg)	CE (% Inhib.) ([2]; dose 0.02 (head: mmol/kg)	CE (% Inhib.) ([2]; dose 0.005 (head: mmol/kg)
CC(C)Cc1ccc(C(C)CN2CCCCC2CC2CCCCC2)cc1 (stereo not drawn) [Example 1, 2-cyclohexylmethyl-1-[2-(4-isobutylphenyl)propyl]piperidine]	75%	0%	5%					
CCN(CC)CCCC(C)NCC(C)c1ccc(CC(C)C)cc1 (stereo not drawn) [Example 2, N-[2-(4-isobutylphenyl)propyl]-N-[5-(N',N'-diethylamino)-2-pentyl]amine]		17%	39%	32%	34%	63%	0%	
CC(C)Cc1ccc(C(C)CN2C(C)CCCC2C)cc1 (stereo not drawn) [Example 3, 2,6-dimethyl-1-[2-(4-isobutylphenyl)propyl]piperidine]	55%	0%	8%					
CC(CN1CCCCC1CC1CCCCC1)c1cccc(Br)c1 (stereo not drawn) [Example 4, 2-cyclohexylmethyl-1-[2-(3-bromophenyl)propyl]piperidine]		0%					4%	7%
CC(CN1CCCCC1CC1CCCCC1)c1ccccc1 (stereo not drawn) [Example 5, 2-cyclohexylmethyl-1-(2-phenylpropyl)piperidine]		13%					16%	0%
